Legend:
[1] = tested on: progesterone receptor (PR); assay: Expression of progesterone receptor in tumors (IHC); format: in vivo, rat; settings: 10 mg/kg
Protocol: The tumors that were evaluated for proliferation and apoptosis were also assessed for expression of estrogen and progesterone receptors by immunohistochemistry (IHC). The percentage of cells positive for ER and PR was determined and analyzed. Tumors were grouped into four different categories: tumors with 0% of cells expressing ER, tumors with 10% of cells expressing ER, tumors with 15 to 30% of cells expressing ER and tumors with 30-50% of cells expressing ER. In general, untreated tumors consistently expressed ER. Out of 12 tumors analyzed, all 12 expressed ER. Four out of these 12 tumors contained 30-50% ER-positive cells.
Untreated tumors consistently expressed PR (12/12 tumors). In general, untreated tumors expressed both receptors, ER and PR, therefore it is possible that many malignant tumors are expressors of these two transcription factors. […] In general, long term treatment with CDB-4124 tends to drive down the level of PR in tumors, whereas progesterone tends to work in the opposite direction. Thus, tumors maintain progesterone responsiveness in the presence of progesterone.

rabbit uterus = assay: Anti-McGinty and anti-Clauberg assays; format: in vivo; settings: average of anti-McGinty and anti-Clauberg results relative to CDB-2914 = 1.00
In short: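 Immature female rabbits were primed with 5 μg estradiol s.c. daily for 6 days. Anti-McGinty: compound given intraluminally into a ligated uterine segment, with progesterone 267 μg/day s.c. for 3 days. Anti-Clauberg: compound oral or s.c. with progesterone 160 μg/day for 5 days. Histological endometrial proliferation inhibition, averaged over both assays, is given relative to CDB-2914.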

[2] = Estrogen levels in human females during administration; format: in vivo; settings: administration periods of at least six months

| Compound | PR expression in tumors (in words) [1] | rabbit Biol. Act. (rabbit uterus) | estrogen levels in human females (in words) [2] |
| --- | --- | --- | --- |
| CC#C[C@]1(O)CC[C@H]2[C@@H]3CCC4=CC(=O)CCC4=C3[C@@H](c3ccc(N(C)C)cc3)C[C@@]21C [RU 486, mifepristone, reference compound] | neutral for PR |  |  |
| COCC(=O)[C@@]1(OC(C)=O)CC[C@H]2[C@@H]3CCC4=CC(=O)CCC4=C3[C@@H](c3ccc(N(C)C)cc3)C[C@@]21C [CDB-4124, 21-methoxy-17α-acetoxy-11β-(4 N,N-dimethylaminophenyl)-19-norpregna-4,9-diene-3,20-dione] |  | 3.60 | maintain estrogen levels in the normal range |

Source: patent US20110053900A1, “PROGESTERONE ANTAGONISTS SUCH AS CDB-4124 IN THE TREATMENT OF BREAST CANCER” (Repros Therapeutics inc, priority 2008, published 2011)
